Measurements reported in patent US20020183684A1, “Electroporation-enhanced inhibition of vascular neointimal hyperplasia” (GENETRONICS, priority 1996, published 2002).
Entries after “also recorded” stand apart in the source; their conditions may differ.

Experiments:
porcine carotid artery = details: pig, in vivo; cited from earlier work
porcine artery = details: cited from earlier work
[1] = system: balloon injured rat carotid arteries (neointimal hyperplasia); experiment: Balloon injury of rat carotid arteries, local heparin delivery with or without electroporation, arterial morphometry at day 28; format: in vivo; details: for Active lumen area / Intimal wall thickness / Mean intimal area / Medial area / Intima/media thickness ratio: day 28, mean ± SEM; for Neointima formation (in words): 28 days
Method: Mature adult male Sprague-Dawley rats (Harlan, San Diego, Calif.) with an average body weight of 423.8±8.6 (SEM) gm were housed in individual cages in light-dark cycled, temperature-controlled rooms. Standard laboratory chow and water were available ad lib. After a minimum of 7 days acclimatization, the rats were anesthetized with an intramuscular injection of ketamine, 90 mg/kg (Phoenix, St. Joseph, Mo.) and xylazine, 15 mg/kg (Fermenta, Kansas City, Mo.). After anesthesia, they were strapped supine on a surgical table with body temperature maintained at 37° C. using a thermostatic blanket. The animals breathed spontaneously and Lead II electrocardiogram was monitored throughout the experiment. […] All procedures conformed to the guiding principles of the American Physiological Society and Institutional Animal Care and Use Committee (Department of Health and Human Services, National Institutes of Health).
Neointimal hyperplasia in rats was induced by a technique described earlier by Clowes et al. (A. W. Clowes and M. M. Clowes, supra). Briefly, the left and right common carotid arteries (CCA) were isolated through cervical incision. After isolation of the arteries, the left CCA at the thoracic entry point was temporarily clamped with a bulldog clip. The right CCA served as a control artery and was not surgically manipulated. The left CCA was catheterized through a proximal incision at the junction of the internal and external carotid arteries with a 2F Fogarty embolectomy catheter (Baxter Healthcare Corporation, Irvine, Calif.). The catheter was advanced to the distal CCA, inflated with 0.3 ml of ambient air for 30 sec each time, and retracted to the internal carotid-external carotid junction three times, with one rotation after each passage to ensure uniform injury of the arterial wall. The Fogarty catheter was then withdrawn and exchanged for a porous balloon electroporation (PBE) catheter.
The PBE catheter (manufactured by Danforth Biomedical, Santa Clara, Calif. as per design provided by Genetronics, Inc., San Diego, Calif.) is comprised of a 2F, triple-lumen shaft with a porous 1.5 cm long PET balloon at the distal end. Catheter lumens are used for passage of a 0.014″ guide wire for balloon inflation and deflation and as a conduit for the lead to the central electrode inside the balloon. The balloon has an inflated diameter of 1.4 mm, with four rows of 7 holes each (nominal hole size: 15-25 μm). The balloon serves as a reservoir for the heparin-containing composition. The central electrode inside the balloon is a coiled silver wire wrapped tightly and densely around the catheter shaft, over a length of approximately 10 mm. This balloon electrode acts as the cathode and the inserted guidewire as the anode. The distance between the distal end of the balloon electrode and the proximal end of the bare zone of the conductive guidewire was 4 mm (FIG. 9).
Following balloon catheter injury of the left CCA, rats were divided into three groups. Groupl received local intracarotid delivery of heparin (Elkins-Sinn, Cherry Hill, N.J.), but no electrical pulsing (positive untreated test: H+E−; H stands for heparin and E for electrical pulsing; + or − designate […] of H or E, respectively). Group 2 received a sequence of four electroporative pulses in the presence of heparin (positive treated test: H+E+). The uninjured right CCA of all animals comprised Group 3 which received neither drug nor electrical pulses and served as negative untreated control (H−E−).
Immediately following balloon injury of the vessel, a PBE catheter was introduced into the injured portion of the left CCA after placement of a temporary clip at the distal end of the balloon injured segment. Heparin (200 IU in 0.1 ml) (Elkins-Sinn) was delivered through the balloon pores into the arterial wall over a period of approx. 20 seconds. […]

[2] = Group 2 H+E+ Inj+, with electroporation

## hirudin
Porcine carotid artery
  Fraction of drug washed out: 80%
  Level in the artery: the same as for passive delivery

## heparin
Porcine artery; approximately 1 hour after iontophoretic delivery
  Fraction of drug washed out: 96%
Porcine artery; heparin 1000 U to 20,000 U/ml
  Concentration remaining in the vessel, IO versus passive delivery: greater concentrations remaining in the vessel
Porcine artery; heparin 1000 U/ml, coronary angiography, blood pressure, cardiac rhythm
  Safety of iontophoretic delivery: safe and well tolerated
Porcine artery; pig balloon injury model, following IO delivery
  Platelet deposition: reduced
[1]; Group 1 H+E− Inj+, no pulsing
  Active lumen area: 0.295 sq. mm
  Intimal wall thickness: 541 μm
  Mean intimal area: 0.778 sq. mm
  Medial area: 0.254 sq. mm
[1]; Group 1 H+E− Inj+: heparin 200 IU local, no electrical pulsing
  Intima/media thickness ratio: 2.96
[1]; [2]
  Active lumen area: 0.902 sq. mm
  Intimal wall thickness: 26.10 μm
  Mean intimal area: 0.067 sq. mm
  Medial area: 0.338 sq. mm
[1]; Group 2 H+E+ Inj+: heparin 200 IU local plus 4 pulses 100 V 20 ms
  Intima/media thickness ratio: 0.25
[1]; H+E+ group
  Slope of linear regression, active lumen area versus IEL area: 0.57
[1]; H+E+: heparinized, electroporated balloon injured arteries, versus H+E−
  Neointima formation (in words): significant reduction in the volume of neointima; also recorded: vastly reduced neointimal thickness; also recorded: strong reduction in the formation of neointimal volume
[1]; H+E− group
  Slope of linear regression, active lumen area versus IEL area: 0.17
[1]; H+E−: heparinized, non-electroporated balloon injured arteries
  Neointima formation (in words): marked proliferation of neointima; also recorded: pronounced neointima formation
[1]; all groups
  Pre-sacrificial electrocardiogram (Lead II): did not reveal any rhythm abnormality
[1]; electroporation-enhanced delivery of heparin
  Period of inhibition of neointimal growth and favorable remodeling: at least 28 days
[1]; rats, behavior and weight
  Tolerability of surgery and arterial electroporation: tolerated the surgery and arterial electroporation well
